{"source": "patent US20230000892A1", "about": "“Solution, Lotion, Gel, and Cream for Use to Prevent Razor Bumps” (priority 2021, published 2023)", "tested_on": "razor bumps", "test": "proof of concept use of acne gels, creams, suspension and lotions immediately after shaving to prevent razor bumps", "format": "in vivo, human", "conditions": "concentration down to at least 0.75% within the gel"}
{"substance": "clindamycin phosphate", "values": [{"measurement": "adequacy of lower concentration for preventing razor bumps", "result": "sufficiently adequate"}]}
